From article PMC2954514 (Molecular cancer therapeutics, 2010)
Where “and” joins values, the source holds several entries; their conditions need not be identical. Equal entries are not always repeated. Where two headings read alike, the source gives them in different places.

How the values were obtained:
rat brain tubulin = details: read-out: KD for tubulin reported previously; cited from earlier work
[1] = test system: Bovine brain microtubule protein (MTP); assay: Electron microscopy of polymers formed; assay type: biochemical
[2] = molecular target: soluble bovine brain tubulin (Bos taurus, UniProt Q6B856); assay: Binding to soluble tubulin
soluble bovine brain tubulin, sequence (P81947 whole entry): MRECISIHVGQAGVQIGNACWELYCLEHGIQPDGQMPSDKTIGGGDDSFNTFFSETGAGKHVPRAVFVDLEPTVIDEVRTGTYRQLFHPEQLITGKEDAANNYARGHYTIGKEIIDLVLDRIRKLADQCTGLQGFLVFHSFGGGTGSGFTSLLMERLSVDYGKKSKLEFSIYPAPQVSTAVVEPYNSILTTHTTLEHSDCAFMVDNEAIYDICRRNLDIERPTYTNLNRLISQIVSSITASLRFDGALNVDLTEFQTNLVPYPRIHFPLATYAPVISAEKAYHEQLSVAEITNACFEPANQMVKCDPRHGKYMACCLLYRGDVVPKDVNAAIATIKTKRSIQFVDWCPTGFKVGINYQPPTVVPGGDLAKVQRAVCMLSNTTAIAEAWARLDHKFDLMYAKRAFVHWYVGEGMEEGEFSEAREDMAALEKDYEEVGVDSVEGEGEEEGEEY
soluble bovine brain tubulin, sequence (Q6B856 whole entry): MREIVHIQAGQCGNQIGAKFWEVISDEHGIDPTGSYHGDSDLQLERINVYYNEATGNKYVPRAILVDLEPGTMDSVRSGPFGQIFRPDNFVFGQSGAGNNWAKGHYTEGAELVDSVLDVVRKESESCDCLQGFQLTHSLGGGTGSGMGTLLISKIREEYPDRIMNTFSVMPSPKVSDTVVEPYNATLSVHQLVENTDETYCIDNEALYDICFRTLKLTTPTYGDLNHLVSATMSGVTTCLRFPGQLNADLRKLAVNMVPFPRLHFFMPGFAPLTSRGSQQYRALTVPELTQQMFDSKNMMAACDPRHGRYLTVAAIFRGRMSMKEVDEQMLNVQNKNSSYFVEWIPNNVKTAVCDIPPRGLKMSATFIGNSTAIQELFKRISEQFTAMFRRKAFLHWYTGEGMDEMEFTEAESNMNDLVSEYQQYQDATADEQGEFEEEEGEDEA

[3] = molecular target: Bovine brain microtubule protein (MTP, tubulin and microtubule-associated proteins) (Bos taurus, UniProt Q6B856); assay: Inhibition of microtubule polymerization; assay type: biochemical; details: for reduction of microtubule polymer mass: 100 nmol/L compound
Bovine brain microtubule protein (MTP, tubulin and microtubule-associated proteins), sequence (P81947 whole entry): as the sequence (P81947 whole entry) above
Bovine brain microtubule protein (MTP, tubulin and microtubule-associated proteins), sequence (Q6B856 whole entry): as the sequence (Q6B856 whole entry) above

[4] = molecular target: MAP-free bovine brain microtubules (Bos taurus, UniProt Q6B856); assay: Microtubule dynamic instability at plus ends; assay type: biochemical; details: for Dynamicity, Percent Change (suppression of dynamic instability): 0.1 μmol/L (100 nmol/L) compound vs control; for Dynamicity, Percent Change (suppression of dynamic instability) / Catastrophe Frequency, Percent Change / Growing Lengths, Percent Change / Percent Time Shortening, Percent Change / Rescue Frequency, Percent Change / Shortening Lengths, Percent Change / Shortening Rates, Percent Change / Growing Rates, Percent Change / Percent Time Growing, Percent Change: (−) decrease; for Catastrophe Frequency / Dynamicity / Percent Time Attenuated / Percent Time Growing / Percent Time Shortening / Rescue Frequency / Growing Lengths / Shortening Lengths / Shortening Rates / Growing Rates: 0.1 μmol/L compound; for Percent Time Attenuated (pause), Percent Change / Catastrophe Frequency, Percent Change / Growing Lengths, Percent Change / Percent Time Shortening, Percent Change / Rescue Frequency, Percent Change / Shortening Lengths, Percent Change / Shortening Rates, Percent Change / Growing Rates, Percent Change / Percent Time Growing, Percent Change: 0.1 μmol/L compound vs control; for Percent Time Attenuated (pause), Percent Change / Growing Rates, Percent Change / Percent Time Growing, Percent Change: (+) increase; for Growing Lengths / Shortening Lengths / Shortening Rates / Growing Rates: mean ± SEM; for Growing Rates: plus ends, steady state
MAP-free bovine brain microtubules, sequence (Q6B856 whole entry): as above
MAP-free bovine brain microtubules, sequence (P81947 whole entry partner): as the sequence (P81947 whole entry) above

[5] = molecular target: steady-state microtubules (MAP-rich); assay: Binding of [3H]S-methyl DM1 to steady-state microtubules; design: species or system bovine
microtubules [6] = details: cited from earlier work
microtubules [7] = details: cited from earlier work; remark: listed apart in the source
metastatic breast cancer = details: Phase II, patients with metastatic breast cancer; cited from earlier work
[8] = 20 μmol/L compound (maytansine: 4 μmol/L and 20 μmol/L)

Row | Compound | polymer morphology by electron microscopy ([1]; 2 μmol/L compound) | polymer morphology by electron microscopy [1, 8] | Dynamicity, Percent Change (suppression of dynamic instability) [4] | Catastrophe Frequency [4] | Dynamicity [4] | Percent Time Attenuated [4] | Percent Time Growing [4] | Percent Time Shortening [4] | Rescue Frequency [4] | Percent Time Attenuated (pause), Percent Change [4] | Catastrophe Frequency, Percent Change [4] | Growing Lengths, Percent Change [4] | Percent Time Shortening, Percent Change [4] | Rescue Frequency, Percent Change [4] | Shortening Lengths, Percent Change [4] | Shortening Rates, Percent Change [4] | Growing Rates, Percent Change [4] | Percent Time Growing, Percent Change [4] | Growing Lengths [4] | Shortening Lengths [4] | also measured
1 | COc1cc2cc(c1Cl)N(C)C(=O)C[C@H](OC(=O)[C@H](C)N(C)C(C)=O)[C@]1(C)O[C@H]1[C@H](C)[C@@H]1C[C@@](O)(NC(=O)O1)[C@H](OC)/C=C/C=C(\C)C2 [Maytansine, reference compound] | very few microtubules and no aggregates | no microtubules or aggregates | 45 (−) % | 0.21 per min | 0.72 | 65% | 24% | 11% | 0.60 per min | 5 (+) % | 30 (−) % | 37 (−) % | 26 (−) % | 40% and 40 (−) % | 40 (−) % | 35% and 35 (−) % | 35% and 35 (−) % | 3.4 (+) % | 1.2 ± 0.1 μm/event | 1.8 ± 0.9 μm/event | Kd (rat brain tubulin): 700 nM; Kd [2]: 860 ± 200 nM; inhibition at 0.1 µM ([3]; read-out: reduction of microtubule polymer mass): 20%; Dynamicity, Percent Change (suppression of dynamic instability) ([4]; listed as maytansine): 45%; Percent Time Attenuated (pause), Percent Change ([4]; listed as maytansine): negligible effect; Catastrophe Frequency, Percent Change ([4]; listed as maytansine): 30%; Shortening Lengths, Percent Change ([4]; listed as maytansine): 40%; Shortening Rates [4]: 5.8 ± 0.5 μm/min; Growing Rates [4]: 1.1 ± 0.2 μm/min
2 | COc1cc2cc(c1Cl)N(C)C(=O)C[C@H](OC(=O)[C@H](C)N(C)C(=O)CCSC)[C@]1(C)O[C@H]1[C@H](C)[C@@H]1C[C@@](O)(NC(=O)O1)[C@H](OC)/C=C/C=C(\C)C2 [S-methyl DM1, N^2'-deacetyl-N^2'-(3-thiomethyl-1-oxopropyl)-maytansine] | a small number of small aggregates along with the microtubules | an increase in aggregate formation | 84% and 84 (−) % | 0.03 per min | 0.21 | 87.4% | 7.3% | 5.4% | 0.56 per min | 41% and 41 (+) % | 90% and 90 (−) % | 47 (−) % | 64 (−) % | 44 (−) % | 60% and 60 (−) % | 70% and 70 (−) % | 24 (−) % | 70 (−) % | 1 ± 0.1 μm/event | 1.2 ± 0.2 μm/event | concentrations inducing tubulin aggregates detectable by electron microscopy [1]: ≥ 2 µmol/L; Kd ([2]; read-out: equilibrium dissociation constant (KD) for soluble tubulin, 3 μmol/L tubulin, PEM buffer, 45 min, 30°C): 930 nM and 900 nM; KD of low affinity sites, fold higher than high affinity sites [5]: 20 fold; binding to high affinity sites on microtubules, fold more strongly than vinblastine [5]: 20 fold and 19 fold; number of low affinity sites [5]: several hundred; molecules bound per microtubule ([5]; 0.1 μmol/L (100 nmol/L)): 19 ± 1 and 19; mean length of the microtubules ([5]; 500 nmol/L – 4 μmol/L, standard deviation 4.5 μm): 13.9–14.1 μm; molecules bound per microtubule or sedimentable aggregate ([5]; 1 μmol/L): approximately 105; molecules bound per microtubule or sedimentable aggregate ([5]; 4 μmol/L): 210 ± 37 and ~210; number of high affinity sites per microtubule ([5]; Scatchard X-intercept): 37; mean length of the microtubules ([5]; between 0 and 100 nmol/L, maximum standard deviation 4 μm): 14.4–14.5 μm; molecules bound to sedimentable polymer, per microtubule ([5]; concentrations ≥500 nmol/L): 60–210; decrease of microtubule polymer mass ([5]; pre-assembled MAP-rich microtubules, 1 h, any concentration (0 – 4 μM)): less than 4%; Kd ([5]; read-out: KD, high affinity sites on microtubules, low drug concentrations (10 nmol/L – 100 nmol/L)): 100 ± 50 nM; Kd ([5]; read-out: KD, low affinity sites on microtubules and sedimentable aggregates, higher drug concentrations (0.1 μmol/L to 4 μmol/L)): 2200 ± 200 nM; reduction of microtubule polymer mass [3]: less than 3%; concentration showing nearly complete inhibition of microtubule polymerization ([3]; MTP 3 mg/mL, 30°C): 20 µmol/L; suppression of dynamicity (change) ([4]; 20 nmol/L, data not shown): ~ 6%; Shortening Rates [4]: 2.7 ± 0.9 μm/min; Growing Rates [4]: 1.3 ± 0.4 μm/min
3 | COc1cc2cc(c1Cl)N(C)C(=O)C[C@H](OC(=O)[C@H](C)N(C)C(=O)CCC(C)(C)SC)[C@]1(C)O[C@H]1[C@H](C)[C@@H]1C[C@@](O)(NC(=O)O1)[C@H](OC)/C=C/C=C(\C)C2 [S-methyl DM4, N^2'-deacetyl-N^2'-(4-thiomethyl-4-methyl-1-oxopentyl)-maytansine] | aggregates as well as both normal and also some imperfect, ragged microtubules with loose protofilamentous structure | more extensive aggregation of tubulin occurred with no intact microtubules | 73% and 73 (−) % | 0.03 per min | 0.35 | 80.6% | 15.2% | 4.2% | 0.50 per min | 30% and 30 (+) % | 90% and 90 (−) % | 16 (−) % | 72 (−) % | 50 (−) % | 60% and 60 (−) % | 56% and 56 (−) % | 24 (−) % | 34 (−) % | 1.6 ± 0.1 μm/event | 1.2 ± 0.2 μm/event | concentrations inducing tubulin aggregates detectable by electron microscopy [1]: ≥ 2 µmol/L; reduction of microtubule polymer mass [3]: less than 3%; plateau inhibition of polymerization ([3]; between 10 μmol/L and 20 μmol/L): 75%; plateau of sedimentable polymer, % of the control polymer mass ([3]; between 10 and 20 μmol/L): 25%; Shortening Rates [4]: 3.9 ± 0.4 μm/min; Growing Rates [4]: 1.3 ± 0.3 μm/min
4 | C=C1C[C@@H]2CC[C@@]34C[C@H]5O[C@H]6[C@@H](O3)[C@H]3O[C@H](CC[C@@H]3O[C@H]6[C@H]5O4)CC(=O)C[C@@H]3[C@@H](OC)[C@@H](C[C@H](O)CN)O[C@H]3C[C@H]3O[C@@H](CC[C@@H]1O2)C[C@@H](C)C3=C [eribulin] | – | – | – | – | – | – | – | – | – | – | – | – | – | – | – | – | – | – | – | – | high affinity binding sites per microtubule (microtubules [6]): 14.7 ±1.3
5 | CC[C@]1(O)C[C@@H]2CN(CCc3c([nH]c4ccccc34)[C@@](C(=O)OC)(c3cc4c(cc3OC)N(C)[C@H]3[C@@](O)(C(=O)OC)[C@H](OC(C)=O)[C@]5(CC)C=CCN6CC[C@]43[C@@H]65)C2)C1 [vinblastine] | – | – | – | – | – | – | – | – | – | – | – | – | – | – | – | – | – | – | – | – | suppression of catastrophe frequency (microtubules [7]; 100 nmol/L): ~ 30%; suppression of growth rate (microtubules [7]; 100 nmol/L): 34%; suppression of shortening rate (microtubules [7]; 100 nmol/L): 47%; enhancement of rescue frequency (microtubules [7]): ~ 200%; high affinity binding sites per microtubule (microtubules [6]): 16.8 ± 4.3
6 | trastuzumab-DM1 | – | – | – | – | – | – | – | – | – | – | – | – | – | – | – | – | – | – | – | – | interim overall response rate (metastatic breast cancer): 39%
